Key:
[1] = Volume of distribution at steady state in C57BL/6 mouse at 1 mg/kg, iv and 3 mg/kg, ip measured upto 24 hrs by HPLC-MS analysis; format: ADME, organism-based; details: in vivo, read-out: Vdss
[2] = MRT(0 to t) in Sprague-Dawley rat at 3 mg/kg, po and 1 mg/kg, iv measured upto 24 hrs by HPLC-MS analysis; format: ADME, organism-based; details: in vivo
[3] = Metabolic stability in dog liver microsomes assessed as intrinsic clearance at 1 uM incubated for 30 mins in presence of NADPH by LC-MS/MS analysis; format: ADME, Canis lupus familiaris, Microsome; details: read-out: CLH
[4] = Cmax in Beagle dog at 1 mg/kg, po measured upto 24 hrs by LC/MS/MS analysis; format: ADME, organism-based, Canis lupus familiaris; design: dose 1 mg/kg, time < 24 hrs, route po; details: in vivo
[5] = molecular target: T1, Phosphatidylinositol 4,5-bisphosphate 3-kinase catalytic subunit delta isoform (Homo sapiens, UniProt O00329); experiment: Inhibition of PI3Kdelta (unknown origin)
T1 sequence (O00329 whole entry): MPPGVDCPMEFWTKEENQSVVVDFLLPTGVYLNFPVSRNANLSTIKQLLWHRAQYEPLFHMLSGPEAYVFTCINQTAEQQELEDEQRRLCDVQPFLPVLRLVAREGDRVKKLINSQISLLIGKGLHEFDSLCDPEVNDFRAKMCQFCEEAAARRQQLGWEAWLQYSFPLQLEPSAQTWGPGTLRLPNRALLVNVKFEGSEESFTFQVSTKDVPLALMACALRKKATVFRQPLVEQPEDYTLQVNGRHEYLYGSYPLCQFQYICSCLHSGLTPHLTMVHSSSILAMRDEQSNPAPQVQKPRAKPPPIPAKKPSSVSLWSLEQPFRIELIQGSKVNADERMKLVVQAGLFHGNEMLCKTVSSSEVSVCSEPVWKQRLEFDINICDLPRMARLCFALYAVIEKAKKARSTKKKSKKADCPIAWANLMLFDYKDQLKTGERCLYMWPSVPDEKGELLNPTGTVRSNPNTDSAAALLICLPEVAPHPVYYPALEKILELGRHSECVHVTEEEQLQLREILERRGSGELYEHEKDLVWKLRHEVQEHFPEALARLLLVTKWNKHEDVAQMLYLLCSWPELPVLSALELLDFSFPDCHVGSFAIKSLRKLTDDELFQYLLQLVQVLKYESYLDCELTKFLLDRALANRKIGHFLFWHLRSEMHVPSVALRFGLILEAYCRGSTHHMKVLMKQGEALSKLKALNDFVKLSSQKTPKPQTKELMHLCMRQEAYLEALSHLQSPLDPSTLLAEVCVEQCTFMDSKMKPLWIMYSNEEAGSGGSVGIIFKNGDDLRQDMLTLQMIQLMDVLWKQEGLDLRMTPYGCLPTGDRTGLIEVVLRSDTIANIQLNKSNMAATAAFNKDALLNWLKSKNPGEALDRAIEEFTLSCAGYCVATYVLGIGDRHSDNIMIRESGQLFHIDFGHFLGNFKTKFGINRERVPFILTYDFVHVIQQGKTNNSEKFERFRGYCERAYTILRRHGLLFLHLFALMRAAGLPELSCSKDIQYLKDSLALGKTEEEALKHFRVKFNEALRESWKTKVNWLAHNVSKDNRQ

[6] = Half life in Sprague-Dawley rat at 3 mg/kg, po and 1 mg/kg, iv measured upto 24 hrs by HPLC-MS analysis; format: ADME, organism-based; details: in vivo
[7] = Metabolic stability in cynomolgus monkey liver microsomes assessed as intrinsic clearance at 1 uM incubated for 30 mins in presence of NADPH by LC-MS/MS analysis; format: ADME, Macaca fascicularis, Microsome; details: read-out: CLH
[8] = molecular target: 3',5'-cyclic-AMP phosphodiesterase 4D (Homo sapiens, UniProt Q08499); experiment: Inhibition of PDE4D (unknown origin)
[9] = Apparent permeability across basolateral to apical side in MDCK-MDR1 cells; format: ADME, cell-based, Canis lupus familiaris; details: dog
[10] = Ratio of drug concentration in brain to plasma in C57BL/6 mouse at 30 mg/kg, po measured at 3 hrs; format: ADME, organism-based; details: read-out: BPR
Cytochrome P450 3A4 = Cytochrome P450 3A4 (Homo sapiens, UniProt P08684); experiment: Inhibition of CYP3A4 (unknown origin) assessed as Kobs; format: ADME
[11] = molecular target: Serine/threonine-protein kinase ATR (Homo sapiens, UniProt Q13535); experiment: Inhibition of ATR (unknown origin)-driven CHK1 phosphorylation
[12] = Tmax in Sprague-Dawley rat at 3 mg/kg, po and 1 mg/kg, iv measured upto 24 hrs by HPLC-MS analysis; format: ADME, organism-based; details: in vivo
[13] = Drug concentration in C57BL/6 mouse plasma at 30 mg/kg, po measured after 24 hrs; format: ADME, organism-based
[14] = Ratio of drug concentration in brain to plasma in C57BL/6 mouse at 10 mg/kg, po measured at 3 hrs; format: ADME, organism-based; details: read-out: BPR
[15] = Tmax in Beagle dog at 1 mg/kg, po and 0.3 mg/kg, iv measured upto 24 hrs by LC/MS/MS analysis; format: ADME, organism-based, Canis lupus familiaris; details: in vivo
[16] = Drug concentration in C57BL/6 mouse plasma at 10 mg/kg, po measured after 3 hrs; format: ADME, organism-based
[17] = molecular target: Phosphatidylinositol 4,5-bisphosphate 3-kinase catalytic subunit gamma isoform (Homo sapiens, UniProt P48736); experiment: Inhibition of PI3Kgamma (unknown origin)
[18] = Drug concentration in C57BL/6 mouse plasma at 30 mg/kg, po measured after 1 hr; format: ADME, organism-based
[19] = Genotoxicity in human TK6 cells assessed as micronuclei formation in presence of S9 fraction by micronucleus test; format: toxicity, subcellular
[20] = Drug concentration in C57BL/6 mouse brain at 10 mg/kg, po measured after 1 hr; format: ADME, organism-based; details: read-out: Ct
[21] = Drug concentration in C57BL/6 mouse plasma at 10 mg/kg, po measured after 1 hr; format: ADME, organism-based
[22] = Metabolic stability in rat liver microsomes assessed as intrinsic clearance at 1 uM incubated for 30 mins in presence of NADPH by LC-MS/MS analysis; format: ADME, Microsome; details: read-out: CLH
[23] = Ratio of drug concentration in brain to plasma in C57BL/6 mouse at 10 mg/kg, po measured at 24 hrs; format: ADME, organism-based; details: brain and plasma, read-out: BPR
[24] = Drug concentration in C57BL/6 mouse plasma at 3 mg/kg, po measured after 3 hrs; format: ADME, organism-based
[25] = Drug concentration in C57BL/6 mouse brain at 1 mg/kg, po measured after 1 hr; format: ADME, organism-based; details: read-out: Ct
[26] = Drug concentration in C57BL/6 mouse brain at 10 mg/kg, po measured after 24 hrs; format: ADME, organism-based; details: read-out: Ct
[27] = Ratio of drug concentration in brain to plasma in C57BL/6 mouse at 3 mg/kg, po measured at 8 hrs; format: ADME, organism-based; details: read-out: BPR
[28] = Drug concentration in C57BL/6 mouse plasma at 3 mg/kg, po measured after 1 hr; format: ADME, organism-based
[29] = Ratio of drug concentration in brain to plasma in C57BL/6 mouse at 30 mg/kg, po measured at 8 hrs; format: ADME, organism-based; details: read-out: BPR
[30] = Ratio of drug concentration in brain to plasma in C57BL/6 mouse at 3 mg/kg, po measured after 24 hrs; format: ADME, organism-based; details: read-out: BPR
[31] = Volume of distribution at steady state in cynomolgus monkey at 1 mg/kg, po and 0.1 mg/kg, iv measured upto 24 hrs by LC/MS/MS analysis; format: ADME, organism-based, Macaca fascicularis; details: in vivo

Chain of Serine/threonine-protein kinase ATR (Q13535 whole entry): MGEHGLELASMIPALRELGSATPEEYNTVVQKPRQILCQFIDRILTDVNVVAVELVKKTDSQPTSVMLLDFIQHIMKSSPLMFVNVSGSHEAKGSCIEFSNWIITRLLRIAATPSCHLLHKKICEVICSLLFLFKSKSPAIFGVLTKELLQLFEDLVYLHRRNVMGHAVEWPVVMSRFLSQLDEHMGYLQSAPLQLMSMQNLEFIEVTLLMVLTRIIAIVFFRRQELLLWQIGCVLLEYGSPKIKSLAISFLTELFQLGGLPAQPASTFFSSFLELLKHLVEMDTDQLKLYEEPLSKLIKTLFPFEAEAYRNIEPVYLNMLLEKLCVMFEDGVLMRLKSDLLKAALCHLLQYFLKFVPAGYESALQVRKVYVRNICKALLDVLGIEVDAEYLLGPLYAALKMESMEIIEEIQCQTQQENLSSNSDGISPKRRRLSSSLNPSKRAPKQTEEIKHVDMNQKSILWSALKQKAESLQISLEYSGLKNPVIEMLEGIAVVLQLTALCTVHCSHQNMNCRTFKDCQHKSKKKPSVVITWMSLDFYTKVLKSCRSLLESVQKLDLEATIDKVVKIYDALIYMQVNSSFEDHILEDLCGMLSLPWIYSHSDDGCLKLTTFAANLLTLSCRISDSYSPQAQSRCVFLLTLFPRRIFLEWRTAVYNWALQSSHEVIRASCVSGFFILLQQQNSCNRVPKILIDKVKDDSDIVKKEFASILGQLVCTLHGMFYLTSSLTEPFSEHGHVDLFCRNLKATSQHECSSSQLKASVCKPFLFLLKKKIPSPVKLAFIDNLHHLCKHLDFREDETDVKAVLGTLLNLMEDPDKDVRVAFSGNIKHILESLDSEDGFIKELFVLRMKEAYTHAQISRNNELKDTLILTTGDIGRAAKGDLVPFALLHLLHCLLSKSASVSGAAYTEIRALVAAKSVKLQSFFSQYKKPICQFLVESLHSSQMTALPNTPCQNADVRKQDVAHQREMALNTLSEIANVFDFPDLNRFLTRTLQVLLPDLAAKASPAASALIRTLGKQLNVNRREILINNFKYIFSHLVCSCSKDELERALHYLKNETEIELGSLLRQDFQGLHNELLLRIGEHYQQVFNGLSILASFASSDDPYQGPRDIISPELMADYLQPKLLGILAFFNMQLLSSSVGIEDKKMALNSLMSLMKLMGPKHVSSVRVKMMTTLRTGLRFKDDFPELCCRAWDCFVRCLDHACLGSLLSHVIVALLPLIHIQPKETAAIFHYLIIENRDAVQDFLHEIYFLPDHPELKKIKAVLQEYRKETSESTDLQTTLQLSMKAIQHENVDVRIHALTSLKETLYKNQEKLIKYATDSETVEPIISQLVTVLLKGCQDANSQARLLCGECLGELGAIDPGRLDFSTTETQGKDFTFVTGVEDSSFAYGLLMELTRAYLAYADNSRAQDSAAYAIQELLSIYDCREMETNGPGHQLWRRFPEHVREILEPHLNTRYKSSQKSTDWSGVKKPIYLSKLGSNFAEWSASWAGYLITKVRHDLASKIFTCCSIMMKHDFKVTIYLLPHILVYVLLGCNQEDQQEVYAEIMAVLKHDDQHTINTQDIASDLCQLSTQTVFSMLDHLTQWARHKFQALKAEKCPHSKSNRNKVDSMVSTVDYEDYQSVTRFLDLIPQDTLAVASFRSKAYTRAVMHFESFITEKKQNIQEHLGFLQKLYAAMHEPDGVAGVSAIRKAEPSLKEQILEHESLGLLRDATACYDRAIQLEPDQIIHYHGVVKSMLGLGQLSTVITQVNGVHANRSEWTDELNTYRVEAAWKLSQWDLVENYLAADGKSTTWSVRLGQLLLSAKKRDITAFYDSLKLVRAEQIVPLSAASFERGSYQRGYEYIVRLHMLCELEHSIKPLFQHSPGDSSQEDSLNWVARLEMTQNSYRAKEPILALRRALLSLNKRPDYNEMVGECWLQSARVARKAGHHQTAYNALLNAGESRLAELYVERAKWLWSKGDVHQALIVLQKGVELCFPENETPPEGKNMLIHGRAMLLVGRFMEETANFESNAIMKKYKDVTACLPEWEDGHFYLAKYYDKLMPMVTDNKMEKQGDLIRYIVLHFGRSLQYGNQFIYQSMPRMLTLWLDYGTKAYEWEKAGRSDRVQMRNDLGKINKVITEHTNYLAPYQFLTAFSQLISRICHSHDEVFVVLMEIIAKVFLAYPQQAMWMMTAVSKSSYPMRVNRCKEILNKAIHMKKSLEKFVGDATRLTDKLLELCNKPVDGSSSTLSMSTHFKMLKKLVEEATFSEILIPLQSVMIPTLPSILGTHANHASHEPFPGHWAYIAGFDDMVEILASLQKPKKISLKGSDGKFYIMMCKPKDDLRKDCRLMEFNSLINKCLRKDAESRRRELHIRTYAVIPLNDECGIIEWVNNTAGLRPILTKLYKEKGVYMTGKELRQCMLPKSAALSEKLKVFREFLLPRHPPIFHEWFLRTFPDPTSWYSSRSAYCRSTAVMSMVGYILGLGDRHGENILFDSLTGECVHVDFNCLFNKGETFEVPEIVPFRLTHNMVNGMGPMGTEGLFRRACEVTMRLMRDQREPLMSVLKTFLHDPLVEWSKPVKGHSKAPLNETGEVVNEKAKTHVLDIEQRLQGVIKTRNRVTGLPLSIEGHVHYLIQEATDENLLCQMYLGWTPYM
Chain of 3',5'-cyclic-AMP phosphodiesterase 4D (Q08499 whole entry): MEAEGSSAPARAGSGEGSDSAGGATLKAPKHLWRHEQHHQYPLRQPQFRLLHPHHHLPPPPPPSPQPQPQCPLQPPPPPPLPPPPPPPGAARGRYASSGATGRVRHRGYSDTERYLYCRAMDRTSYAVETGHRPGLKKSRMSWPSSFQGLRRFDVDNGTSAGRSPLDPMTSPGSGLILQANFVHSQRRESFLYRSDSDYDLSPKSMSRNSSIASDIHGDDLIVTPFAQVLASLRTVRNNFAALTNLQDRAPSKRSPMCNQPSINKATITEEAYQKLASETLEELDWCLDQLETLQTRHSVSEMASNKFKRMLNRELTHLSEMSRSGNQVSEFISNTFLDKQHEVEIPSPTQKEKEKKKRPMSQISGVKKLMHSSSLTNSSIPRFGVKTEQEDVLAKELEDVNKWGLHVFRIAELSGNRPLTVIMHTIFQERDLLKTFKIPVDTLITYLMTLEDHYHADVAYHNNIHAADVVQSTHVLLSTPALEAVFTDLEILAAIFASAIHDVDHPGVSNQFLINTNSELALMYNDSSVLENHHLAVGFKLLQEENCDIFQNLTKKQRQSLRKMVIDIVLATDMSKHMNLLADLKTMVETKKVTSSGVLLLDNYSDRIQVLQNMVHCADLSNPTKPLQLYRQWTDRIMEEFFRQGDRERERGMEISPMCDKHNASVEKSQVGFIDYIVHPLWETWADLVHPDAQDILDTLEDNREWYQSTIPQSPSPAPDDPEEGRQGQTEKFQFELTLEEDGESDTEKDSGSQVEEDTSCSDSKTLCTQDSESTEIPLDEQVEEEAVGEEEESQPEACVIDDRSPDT
Chain of Cytochrome P450 3A4 (P08684 whole entry): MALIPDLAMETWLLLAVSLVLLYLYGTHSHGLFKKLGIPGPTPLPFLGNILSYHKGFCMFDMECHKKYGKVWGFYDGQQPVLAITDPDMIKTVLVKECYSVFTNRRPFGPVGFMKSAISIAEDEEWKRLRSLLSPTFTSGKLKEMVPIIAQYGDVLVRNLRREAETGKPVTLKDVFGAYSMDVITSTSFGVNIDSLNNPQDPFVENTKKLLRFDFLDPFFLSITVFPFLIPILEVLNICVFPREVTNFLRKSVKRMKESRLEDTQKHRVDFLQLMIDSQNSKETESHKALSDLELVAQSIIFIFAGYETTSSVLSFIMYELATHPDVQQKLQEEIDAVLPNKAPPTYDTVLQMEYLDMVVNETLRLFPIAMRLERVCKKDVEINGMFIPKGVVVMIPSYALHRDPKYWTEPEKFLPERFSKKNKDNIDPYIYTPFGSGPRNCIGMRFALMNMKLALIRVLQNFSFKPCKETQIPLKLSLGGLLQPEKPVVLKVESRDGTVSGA
Chain of Phosphatidylinositol 4,5-bisphosphate 3-kinase catalytic subunit gamma isoform (P48736 whole entry, canonical isoform): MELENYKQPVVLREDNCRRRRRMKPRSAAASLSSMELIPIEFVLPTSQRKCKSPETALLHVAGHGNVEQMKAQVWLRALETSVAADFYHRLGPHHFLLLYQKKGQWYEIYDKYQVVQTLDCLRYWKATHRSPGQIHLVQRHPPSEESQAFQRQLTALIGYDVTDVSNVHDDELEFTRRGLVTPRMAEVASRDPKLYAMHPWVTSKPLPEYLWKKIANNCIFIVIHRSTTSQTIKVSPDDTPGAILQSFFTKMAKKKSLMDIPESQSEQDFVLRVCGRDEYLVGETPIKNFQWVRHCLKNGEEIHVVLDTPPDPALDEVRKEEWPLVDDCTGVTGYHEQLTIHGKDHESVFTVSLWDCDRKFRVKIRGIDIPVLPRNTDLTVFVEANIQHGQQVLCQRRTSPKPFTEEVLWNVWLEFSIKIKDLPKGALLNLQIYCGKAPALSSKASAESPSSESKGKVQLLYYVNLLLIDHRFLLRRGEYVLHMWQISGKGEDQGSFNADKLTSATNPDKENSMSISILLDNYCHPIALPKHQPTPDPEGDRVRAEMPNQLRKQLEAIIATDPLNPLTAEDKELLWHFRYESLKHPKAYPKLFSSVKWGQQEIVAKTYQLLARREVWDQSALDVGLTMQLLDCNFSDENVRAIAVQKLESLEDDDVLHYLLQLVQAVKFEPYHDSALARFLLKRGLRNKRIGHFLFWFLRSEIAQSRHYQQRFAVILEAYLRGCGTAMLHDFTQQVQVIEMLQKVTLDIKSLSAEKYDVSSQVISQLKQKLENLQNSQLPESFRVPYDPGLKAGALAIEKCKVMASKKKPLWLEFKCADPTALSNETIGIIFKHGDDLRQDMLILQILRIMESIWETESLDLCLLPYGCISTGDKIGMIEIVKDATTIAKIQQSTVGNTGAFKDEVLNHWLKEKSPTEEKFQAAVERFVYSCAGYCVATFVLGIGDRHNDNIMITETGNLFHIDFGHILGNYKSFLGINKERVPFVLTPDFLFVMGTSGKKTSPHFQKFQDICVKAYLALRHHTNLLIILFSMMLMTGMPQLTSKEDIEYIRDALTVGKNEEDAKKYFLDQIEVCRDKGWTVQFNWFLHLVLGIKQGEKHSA

Compound	Vd [1] [L/kg]	MRT last at 24 h [2] [h]	microsomal CLint at 1 µM [3] [µL/min/mg]	IC50 [5] [µM]	half-life [6] [h]	microsomal CLint at 1 µM [7] [µL/min/mg]	IC50 [8] [µM]	Papp B→A [9] [×10⁻⁶ cm/s]	Kp at 3 h [10]	Kobs (Cytochrome P450 3A4) [min⁻¹]	IC50 [11] [µM]	Tmax [12] [h]	concentration at 24 h [13] [nM]	Kp at 3 h [14]	concentration at 3 h [16] [nM]	IC50 [17] [µM]	concentration at 1 h [18] [nM]	Activity [19]	concentration at 1 h [20] [nM]	concentration at 1 h [21] [nM]	further results
C[C@@H]1COCCN1c1cc(N2CCOC[C@@H]2C)nc2[nH]c(-c3ccccn3)nc12	2.6	2.3	19	> 10	2.6	115	17	20.1	0.65	0.032	17.2	1.3	1120	0.51	2160	> 10	3930	Non-Toxic	1490	2480	Cmax [4]: 34 nM; Tmax [15]: 0.8 h; microsomal CLint at 1 µM [22]: 27 µL/min/mg
C[C@@H]1COCCN1c1cc(N2CCOC[C@@H]2C)nc2[nH]c(-c3cscn3)nc12	2.8	2.2	10	> 10	3	31	6.3	12	0.75	0.021	14.4	1.5	7020	0.59	5520	> 10	10200	Non-Toxic	4270	4420	Kp at 24 h [23]: 0.62; concentration at 3 h [24]: 2050 nM; concentration at 1 h [25]: 388 nM; concentration at 24 h [26]: 130 nM; Kp at 8 h [27]: 0.29; concentration at 1 h [28]: 2750 nM; Kp at 8 h [29]: 0.73; Kp at 24 h [30]: 0.84; microsomal CLint at 1 µM [22]: 21 µL/min/mg; Vdss [31]: 3 L/kg
